# Measurements as given in US8173376B2, “Method for identifying compounds for treatment of pain” (Universite Laval, priority 2003, dated 2012).
# Entries after “also recorded” stand apart in the source; their conditions may differ.
# What was measured:
# [1] = system: Sprague-Dawley rats; assay: Tactile/mechanical nociceptive withdrawal threshold (von Frey) after intrathecal delivery; type: in vivo, rat; settings: for Nociceptive threshold for mechanical stimulation: intrathecal, 10 μg/day x 6 days
# [2] = system: KCC2; assay: Immunoblot of spinal KCC2 protein after intrathecal oligodeoxynucleotide treatment; type: in vivo, rat; settings: naïve rats, antisense 12 h or 36 h
# [3] = system: lamina I (LI) neurons; assay: Calcium imaging (fura-2-AM) of GABA-evoked [Ca2+]i rise in lamina I neurons in spinal cord slices; type: cell-based, rat
# [4] = system: GlyRs and GABAARs; assay: Whole-cell recording of miniature postsynaptic currents (mPSCs) and GABA-evoked responses in LI neurons; type: cell-based, rat; settings: LI neuron, p>0.5
# [5] = system: Sprague-Dawley rats; assay: Thermal nociceptive withdrawal latency after intrathecal injection; type: in vivo, rat; settings: intact naïve rats, DIOA 15-30 μg intrathecal
# [6] = system: lamina I neurons; assay: Anion reversal potential (Eanion) by gramicidin-D perforated-patch voltage-clamp recording in dorsal horn slices; type: cell-based, rat
# [7] = system: Sprague-Dawley rats; settings: intrathecal, at the doses used
# [8] = system: voltage sensitive Ca2+ channels (VSCCs) and NMDA receptor/channels; settings: cited from earlier work; for Efficacy in the treatment of neuropathic pain: humans
# [9] = lamina I neurons from naïve rats, 50 ng/ml in bath
molecule,measurement,setting,value
"5′-TCTCCTTGGGATTGCCGTCA-3′ (DNA, all phosphorothioate, methylation of C not given here) [KCC2 antisense oligodeoxynucleotide]",Tactile nociceptive withdrawal threshold,"[1]; naïve rats, intrathecal antisense each 12 h (0 h, 12 h, 24 h), vs scrambled oligodeoxynucleotide",significant decrease
same,Spinal KCC2 protein levels (immunoblots),[2],Decrease
CCCCC1(C2CCCC2)Cc2cc(OCC(=O)O)c(Cl)c(Cl)c2C1=O (stereo not shown) [DIOA],LI neurons showing an increase in [Ca2+]i on GABA application,"[3]; naïve rat spinal slices, bath applied DIOA 30 μM",30%
same,Proportion of LI neurons displaying a GABA-evoked increase in [Ca2+]i (in words),"[3]; naïve rats, in the presence of DIOA, χ2 corrected=4.43",significantly higher
same,Effect on peak conductance of synaptic events (mPSCs),"[4]; CsCl pipette, Eanion clamped at 0 mV, n=4 neurons x 50 mPSCs",neither affected
same,Effect on GABA-evoked responses,[4]; n=5,neither affected
same,Nociceptive threshold to mechanical stimuli,"[1]; intact naïve rats, DIOA 15-30 μg intrathecal",rapid and reversible decrease
same,Nociceptive threshold to thermal stimuli (withdrawal latency),[5],rapid and reversible decrease
O=S(=O)(NCCNC/C=C/c1ccc(Br)cc1)c1cccc2cnccc12 [H-89],Change of Eanion,"[6]; lamina I neurons from PNI rats, H-89 15 in bath",significant hyperpolarization
same,Nociceptive threshold to mechanical stimulation,"[1]; H-89 380 nmol local spinal delivery, vs vehicle",increase
COC(=O)[C@@]1(O)C[C@H]2O[C@]1(C)n1c3ccccc3c3c4c(c5c6ccccc6n2c5c31)C(=O)NC4 [K-252a],Change of Eanion,"[6]; lamina I neurons from PNI rats, K-252a 200 nM in bath",hyperpolarization of the Eanion to a level similar to that observed in lamina I neurons taken from naïve rats; also recorded: significant hyperpolarization
same,Threshold for tactile nociceptive withdrawal,"[1]; PNI rats, K-252a 6 nM intrathecal, vs vehicle",increase
same,Motor disturbances or sedation,[7],did not produce any motor disturbances or sedation
NCC1(CC(=O)O)CCCCC1 [gabapentin],Efficacy in the treatment of neuropathic pain,[8],highly efficacious
CNC1(c2ccccc2Cl)CCCCC1=O (stereo not shown) [ketamine],Efficacy in the treatment of neuropathic pain,[8],highly efficacious
same,Side effects,[8]; use of Ca2+ channel blockers / NMDA antagonists,many undesirable side effects
NC1=N[C@H](O)[C@H]2[C@H]3O[C@]4(O)O[C@@H]([C@@H](O)[C@@]2(N1)[C@@H]4O)[C@]3(O)CO [tetrodotoxin],Block of GABA-evoked [Ca2+]i responses,[3],blocked
KN-93,Change of Eanion,"[6]; lamina I neurons from PNI rats, KN-93 5 μM in bath",significant hyperpolarization
"NGF: nerve growth factor, activator of TrkA, bath applied",Change of Eanion,[6]; [9],significantly depolarized; also recorded: significant depolarization
human recombinant NGF: human recombinant NGF for intrathecal delivery,Nociceptive threshold for mechanical stimulation,[1]; naïve rats,very similar decrease
"BDNF: brain-derived neurotrophic factor, activator of TrkB, bath applied (protein, UniProt P23560 19-247, looked up) Neurotrophic factor BDNF …: APMKEANIRGQGGLAYPGVRTHGTLESVNGPKAGSRGLTSLADTFEHVIEELLDEDQKVRPNEENNKDADLYTSRVMLSSQVPLEPPLLFLLEEYKNYLDAANMSMRVRRHSDPARRGELSVCDSISEWVTAADKKTAVDMSGGTVTVLEKVPVSKGQLKQYFYETKCNPMGYTKEGCRGIDKRHWNSQCRTTQSYVRALTMDSKKRIGWRFIRIDTSCVCTLTIKRGR",Change of Eanion,[6]; [9],significantly depolarized; also recorded: significant depolarization
"human recombinant BDNF: human recombinant BDNF for local spinal delivery (protein, UniProt P23560 19-247, looked up) Neurotrophic factor BDNF …: APMKEANIRGQGGLAYPGVRTHGTLESVNGPKAGSRGLTSLADTFEHVIEELLDEDQKVRPNEENNKDADLYTSRVMLSSQVPLEPPLLFLLEEYKNYLDAANMSMRVRRHSDPARRGELSVCDSISEWVTAADKKTAVDMSGGTVTVLEKVPVSKGQLKQYFYETKCNPMGYTKEGCRGIDKRHWNSQCRTTQSYVRALTMDSKKRIGWRFIRIDTSCVCTLTIKRGR",Nociceptive threshold for mechanical stimulation,[1]; naïve rats,significant decrease
